For one test, the target named is USP1-UAF1 (Homo sapiens, UniProt O94782). In words: Ubiquitin Rhodamine assay for USP1-UAF1 activity. Format: biochemical. Here is the method: Certain compounds of the disclosure were assessed for USP1-UAF1 activity in a Ubiquitin Rhodamine assay as described in Example 135.
For test [1], the system named is MDA-MB-436 (BRCA1 mutant) cell line. In words: Viability assay in BRCA1 mutant cell line MDA-MB-436. Format: cell-based. Conditions: BRCA1 mutant MDA-MB-436, read-out: MDA-MB-436 rel IC50. An excerpt:
(§1) Table 1 also indicates IC50 values in a viability assay for a non-isogenic pair of BRCA1 mutant (column 5—MDA-MB-436) and BRCA1 WT (column 6—HCC1954) cell lines. These values indicate the effect of treatment with compound on cell survival.

The subject of test [2] is HCC1954 (BRCA1 WT) cell line. In words: Viability assay in BRCA1 WT cell line HCC1954. Format: cell-based. Conditions: read-out: HCC 1954 IC50 rel IC50.
Text: as §1

The next test relates to monoubiquitinated PCNA. In words: AlphaLISA assay measuring monoubiquitinated PCNA in MDA-MB-436. Format: cell-based. Conditions: read-out: Alpha LISA IC50. An excerpt: Table 1 also indicates IC50 values for exemplary compounds in an AlphaLISA assay measuring monoubiquitinated PCNA in a BRCA1 mutant cell line (MDA-MB-436; column 7).
In general terms: Alpha assays give light when donor and acceptor beads are brought close together.

The mark [3] stands for this setting: Homo sapiens, MDA-MB-436, viability.

The term IC50 denotes the concentration needed to halve the response being measured.

Read-outs that look alike come from different tables or passages of the source.

Chain of USP1-UAF1 (O94782 whole entry): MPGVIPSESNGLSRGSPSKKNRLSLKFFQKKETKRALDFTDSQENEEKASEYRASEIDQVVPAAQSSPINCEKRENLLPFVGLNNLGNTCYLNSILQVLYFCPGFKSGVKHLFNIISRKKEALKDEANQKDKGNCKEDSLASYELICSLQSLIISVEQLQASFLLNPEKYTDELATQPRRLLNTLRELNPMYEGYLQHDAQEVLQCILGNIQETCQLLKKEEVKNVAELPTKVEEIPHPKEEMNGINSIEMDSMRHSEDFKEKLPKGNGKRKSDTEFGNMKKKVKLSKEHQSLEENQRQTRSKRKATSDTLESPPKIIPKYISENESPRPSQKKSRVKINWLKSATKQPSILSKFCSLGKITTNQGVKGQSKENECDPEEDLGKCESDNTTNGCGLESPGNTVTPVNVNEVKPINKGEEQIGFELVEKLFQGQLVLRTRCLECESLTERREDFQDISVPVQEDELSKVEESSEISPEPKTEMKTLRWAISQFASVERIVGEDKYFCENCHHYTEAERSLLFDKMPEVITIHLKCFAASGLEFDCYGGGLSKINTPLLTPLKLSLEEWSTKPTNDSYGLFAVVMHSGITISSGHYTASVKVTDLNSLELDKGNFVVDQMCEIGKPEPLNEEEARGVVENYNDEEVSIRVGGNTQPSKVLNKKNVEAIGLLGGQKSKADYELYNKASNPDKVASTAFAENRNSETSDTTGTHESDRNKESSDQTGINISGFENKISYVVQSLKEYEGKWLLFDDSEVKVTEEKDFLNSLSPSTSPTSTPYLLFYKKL
Chain of USP1-UAF1 (Q8TAF3 whole entry partner): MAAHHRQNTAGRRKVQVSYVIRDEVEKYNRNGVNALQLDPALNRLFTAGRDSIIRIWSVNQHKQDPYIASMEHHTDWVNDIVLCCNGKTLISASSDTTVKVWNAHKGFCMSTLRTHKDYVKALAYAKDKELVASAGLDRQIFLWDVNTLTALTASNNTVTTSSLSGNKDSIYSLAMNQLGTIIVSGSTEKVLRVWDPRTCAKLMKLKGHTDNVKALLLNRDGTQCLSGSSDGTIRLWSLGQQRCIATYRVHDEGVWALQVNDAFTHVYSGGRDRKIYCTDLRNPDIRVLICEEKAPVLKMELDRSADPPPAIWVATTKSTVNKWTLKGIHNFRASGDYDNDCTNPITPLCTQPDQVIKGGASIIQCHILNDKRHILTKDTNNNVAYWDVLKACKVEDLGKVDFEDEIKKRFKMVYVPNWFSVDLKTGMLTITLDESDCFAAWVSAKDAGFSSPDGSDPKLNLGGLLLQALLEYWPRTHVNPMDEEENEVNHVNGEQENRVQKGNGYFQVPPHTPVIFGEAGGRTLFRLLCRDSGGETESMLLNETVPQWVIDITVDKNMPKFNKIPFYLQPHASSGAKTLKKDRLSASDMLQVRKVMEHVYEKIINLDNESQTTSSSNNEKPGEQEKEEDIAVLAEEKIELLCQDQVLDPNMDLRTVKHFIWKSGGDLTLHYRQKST

Regarding `Cn1cc(C(F)(F)F)nc1-c1ccc(C(O)c2c[nH]c3cnc(-c4c(OC(F)F)ncnc4C4CC4)nc23)cc1` (single isomer, unassigned) [Compound 141], the IC50 at USP1-UAF1 was less than 30 nM; in test [1] (viability), less than 100 nM; in test [2], no less than 10000 nM; in the test with monoubiquitinated PCNA it was less than 100 nM.

Consider `COc1ncnc(C(C)C)c1-c1ncc2[nH]cc(Cc3ccc(-c4nc(C(F)(F)F)cn4C)cc3)c2n1` [Compound 105, 2-(4-isopropyl-6-methoxy-pyrimidin-5-yl)-7-[[4-[1-methyl-4-(trifluoromethyl)imidazol-2-yl]phenyl]methyl]-5H-pyrrolo[3,2-d]pyrimidine], for which the IC50 against USP1-UAF1 is less than 30 nM; in test [1] (setting [3]) it was less than 100 nM; in test [2] (Homo sapiens) it was no less than 10000 nM; with monoubiquitinated PCNA (Homo sapiens), less than 100 nM.

In the case of `COc1ncnc(C2CC2)c1-c1ncc2[nH]nc(Cc3ccc(-c4nc(C#N)cn4C)cc3)c2n1` [Compound 45, 2-[4-[[5-(4-cyclopropyl-6-methoxy-pyrimidin-5-yl)-1H-pyrazolo[4,3-d]pyrimidin-3-yl]methyl]phenyl]-1-methyl-imidazole-4-carbonitrile], the IC50 against USP1-UAF1 was 100 to 10000 nM; in test [1] (setting [3]), 250 to 10000 nM; in test [2] (Homo sapiens), no less than 10000 nM; in the test on monoubiquitinated PCNA (Homo sapiens), 250 to 10000 nM.

Take `COc1ncccc1-c1ncc2[nH]cc(Cc3ccc(-c4nc(C(F)(F)F)cn4C)cc3)c2n1` [Compound 11, 2-(2-methoxy-3-pyridyl)-7-[[4-[1-methyl-4-(trifluoromethyl)imidazol-2-yl]phenyl]methyl]-5H-pyrrolo[3,2-d]pyrimidine]: the IC50 at USP1-UAF1 was 30 to 100 nM; in test [1] (setting [3]), 250 to 10000 nM; in test [2] (Homo sapiens) it was no less than 10000 nM; with monoubiquitinated PCNA (Homo sapiens), 100 to 250 nM.

`CC(C)c1ccccc1-c1cc2c(Oc3ccc(-c4nc(C(F)(F)F)cn4C)cc3)c[nH]c2cn1` [Compound 14, 5-(2-isopropylphenyl)-3-[4-[1-methyl-4-(trifluoromethyl)imidazol-2-yl]phenoxy]-1H-pyrrolo[2,3-c]pyridine]: the IC50 was less than 30 nM at USP1-UAF1, less than 100 nM in test [1] (setting [3]), no less than 10000 nM in test [2] (Homo sapiens) and less than 100 nM in the test with monoubiquitinated PCNA (Homo sapiens).

Consider `CC(C)c1ccccc1-c1cc2c(CN3CCN(c4nc(C(F)(F)F)cn4C)CC3)c[nH]c2cn1` [Compound 71], for which the IC50 against USP1-UAF1 lay within 100 to 10000 nM; in test [1] (setting [3]) it was 250 to 10000 nM; in test [2] (Homo sapiens), 250 to 10000 nM; in the test on monoubiquitinated PCNA (Homo sapiens), 250 to 10000 nM.

As for `COc1ncnc(C2CC2)c1-c1nc(F)c2[nH]cc(Cc3ccc(-c4nc(C(F)(F)F)cn4C)cc3)c2n1` [Compound 110], the IC50 at USP1-UAF1 was less than 30 nM; in test [1] (setting [3]), 100 to 250 nM; in test [2] (Homo sapiens) it was no less than 10000 nM; in the test on monoubiquitinated PCNA (Homo sapiens), 250 to 10000 nM.

Consider `Cn1cc(C(F)(F)F)nc1-c1ccc(Cc2c[nH]c3cnc(-c4cccnc4N4CCC4)nc23)cc1` [Compound 67, 2-[2-(azetidin-1-yl)-3-pyridyl]-7-[[4-[1-methyl-4-(trifluoromethyl)imidazol-2-yl]phenyl]methyl]-5H-pyrrolo[3,2-d]pyrimidine], for which the IC50 on USP1-UAF1 was 100 to 10000 nM; in test [1] (setting [3]), 250 to 10000 nM; in test [2] (Homo sapiens), no less than 10000 nM; with monoubiquitinated PCNA (Homo sapiens), 250 to 10000 nM.

With `COc1ncnc(C2CC2)c1-c1nc(C)c2[nH]cc(Cc3ccc(-c4nc(C(F)(F)F)cn4C)cc3)c2n1` [Compound 148, 2-(4-cyclopropyl-6-methoxy-pyrimidin-5-yl)-4-methyl-7-[[4-[1-methyl-4-(trifluoromethyl)imidazol-2-yl]phenyl]methyl]-5H-pyrrolo[3,2-d]pyrimidine], the IC50 against USP1-UAF1 was less than 30 nM; in test [1] (setting [3]) it was less than 100 nM; in test [2] (Homo sapiens), no less than 10000 nM; in the test with monoubiquitinated PCNA (Homo sapiens), less than 100 nM.

In the case of `COc1ncnc(C2CC2)c1-c1ncc2[nH]c(C)c(C(O)c3ccc(-c4nc(C(F)(F)F)cn4C)cc3)c2n1` (centres unmarked) [Compound 207, [2-(4-cyclopropyl-6-methoxy-pyrimidin-5-yl)-6-methyl-5H-pyrrolo[3,2-d]pyrimidin-7-yl]-[4-[1-methyl-4-(trifluoromethyl)imidazol-2-yl]phenyl]methanol], the IC50 was 100 to 10000 nM against USP1-UAF1, 250 to 10000 nM in test [1] (setting [3]), no less than 10000 nM in test [2] (Homo sapiens) and 250 to 10000 nM in the test with monoubiquitinated PCNA (Homo sapiens).

Turning to `COc1ccnc(C2CC2)c1-c1ncc2[nH]nc(Cc3ccc(-c4nc(C(F)(F)F)cn4C)cc3)c2n1` [Compound 116], the IC50 against USP1-UAF1 was less than 30 nM; in test [1] (setting [3]), less than 100 nM; in test [2] (Homo sapiens), no less than 10000 nM; in the test with monoubiquitinated PCNA (Homo sapiens) it was 100 to 250 nM.

Consider `COc1ncnc(C(C)(C)C)c1-c1ncc2c(n1)c(Cc1ccc(-c3nc(C(F)(F)F)cn3C)cc1)nn2C` [Compound 96], for which the IC50 at USP1-UAF1 is 30 to 100 nM; in test [1] (setting [3]) it was 100 to 250 nM; in test [2] (Homo sapiens) it was no less than 10000 nM; with monoubiquitinated PCNA (Homo sapiens), 100 to 250 nM.

Take `COC(c1ccc(-c2nc(C(F)(F)F)cn2C)cc1)c1c[nH]c2cnc(-c3ccccc3C(C)C)nc12` (centres unmarked) [Compound 73, 2-(2-isopropylphenyl)-7-[methoxy-[4-[1-methyl-4-(trifluoromethyl)imidazol-2-yl]phenyl]methyl]-5H-pyrrolo[3,2-d]pyrimidine]: the IC50 on USP1-UAF1 lay within 100 to 10000 nM; in test [1] (setting [3]), 250 to 10000 nM; in test [2] (Homo sapiens), 250 to 10000 nM; with monoubiquitinated PCNA (Homo sapiens), 100 to 250 nM.

In the case of `COc1ncnc(C2CC2)c1-c1ncc2[nH]cc(Cc3ccc(-c4nc(C(F)(F)F)cn4C4COC4)cc3)c2n1` [Compound 154, 2-(4-cyclopropyl-6-methoxy-pyrimidin-5-yl)-7-[[4-[1-(oxetan-3-yl)-4-(trifluoromethyl)imidazol-2-yl]phenyl]methyl]-5H-pyrrolo[3,2-d]pyrimidine], the IC50 is 30 to 100 nM against USP1-UAF1, less than 100 nM in test [1] (setting [3]), no less than 10000 nM in test [2] (Homo sapiens) and 100 to 250 nM in the test with monoubiquitinated PCNA (Homo sapiens).

As to `COc1nccc(C)c1-c1ncc2[nH]nc(Cc3ccc(-c4nc(C(F)(F)F)cn4C)cc3)c2n1` [Compound 191], the IC50 against USP1-UAF1 is 100 to 10000 nM; in test [1] (setting [3]), 100 to 250 nM; in test [2] (Homo sapiens), no less than 10000 nM; in the test with monoubiquitinated PCNA (Homo sapiens), 250 to 10000 nM.

Regarding `COc1ncnc(C2CC2)c1-c1ncc2[nH]cc(Cc3ccc(-c4nc(C(F)(F)F)cn4C)c(C)c3)c2n1` [Compound 113], the IC50 was less than 30 nM at USP1-UAF1, less than 100 nM in test [1] (setting [3]), no less than 10000 nM in test [2] (Homo sapiens) and less than 100 nM in the test on monoubiquitinated PCNA (Homo sapiens).

For the compound `COc1nccc(C2CC2)c1-c1ncc2[nH]cc(Cc3ccc(-c4nc(C(F)(F)F)cn4C)cc3)c2n1` [Compound 152, 2-(4-cyclopropyl-2-methoxy-3-pyridyl)-7-[[4-[1-methyl-4-(trifluoromethyl)imidazol-2-yl]phenyl]methyl]-5H-pyrrolo[3,2-d]pyrimidine], the IC50 against USP1-UAF1 is less than 30 nM; in test [1] (setting [3]), less than 100 nM; in test [2] (Homo sapiens) it was no less than 10000 nM; in the test with monoubiquitinated PCNA (Homo sapiens), less than 100 nM.

With `Cn1cc(C(F)(F)F)nc1-c1ccc(C(O)c2c[nH]c3cnc(-c4c(OC(F)F)ncnc4C4CC4)nc23)cc1` (centres unmarked) [Compound 168, [2-[4-cyclopropyl-6-(difluoromethoxy)pyrimidin-5-yl]-5H-pyrrolo[3,2-d]pyrimidin-7-yl]-[4-[1-methyl-4-(trifluoromethyl)imidazol-2-yl]phenyl]methanol], the IC50 is 30 to 100 nM against USP1-UAF1, less than 100 nM in test [1] (setting [3]), 250 to 10000 nM in test [2] (Homo sapiens) and less than 100 nM in the test with monoubiquitinated PCNA (Homo sapiens).

Regarding `CCn1cc(C(F)(F)F)nc1-c1ccc(Cc2n[nH]c3cnc(-c4c(OC)ncnc4C4CC4)nc23)cc1` [Compound 165, 5-(4-cyclopropyl-6-methoxypyrimidin-5-yl)-3-(4-(1-ethyl-4-(trifluoromethyl)-1H-imidazol-2-yl)benzyl)-1H-pyrazolo[4,3-d]pyrimidine], the IC50 against USP1-UAF1 is less than 30 nM; in test [1] (setting [3]) it was less than 100 nM; in test [2] (Homo sapiens) it was no less than 10000 nM; in the test with monoubiquitinated PCNA (Homo sapiens), less than 100 nM.

On to `Cn1cc(C(F)(F)F)nc1-c1ccc(Nc2c[nH]c3cnc(-c4ccccc4C4CC4)nc23)cc1` [Compound 12, 2-(2-cyclopropylphenyl)-N-[4-[1-methyl-4-(trifluoromethyl)imidazol-2-yl]phenyl]-5H-pyrrolo[3,2-d]pyrimidin-7-amine], for which the IC50 is 100 to 10000 nM against USP1-UAF1, 250 to 10000 nM in test [1] (setting [3]), 250 to 10000 nM in test [2] (Homo sapiens) and 250 to 10000 nM in the test on monoubiquitinated PCNA (Homo sapiens).

As to `COc1ccnc(C2CC2)c1-c1ncc2[nH]cc(Cc3ccc(-c4nc(C(F)(F)F)cn4C)cc3)c2n1` [Compound 161], the IC50 against USP1-UAF1 is 30 to 100 nM; in test [1] (setting [3]) it was less than 100 nM; in test [2] (Homo sapiens) it was no less than 10000 nM; in the test on monoubiquitinated PCNA (Homo sapiens), 100 to 250 nM.

In the case of `COc1ncnc(C2(F)CC2)c1-c1ncc2[nH]nc(Cc3ccc(-c4nc(C(F)(F)F)cn4C)cc3)c2n1` [Compound 202, 5-[4-(1-fluorocyclopropyl)-6-methoxy-pyrimidin-5-yl]-3-[[4-[1-methyl-4-(trifluoromethyl)imidazol-2-yl]phenyl]methyl]-1H-pyrazolo[4,3-d]pyrimidine], the IC50 against USP1-UAF1 is less than 30 nM; in test [1] (setting [3]) it was less than 100 nM; in test [2] (Homo sapiens), no less than 10000 nM; with monoubiquitinated PCNA (Homo sapiens), less than 100 nM.

Consider `COc1ncnc(C2CC2)c1-c1ncc2nn(S(C)(=O)=O)c(Cc3ccc(-c4nc(C(F)(F)F)cn4C)cc3)c2n1` [Compound 164, 5-(4-cyclopropyl-6-methoxy-pyrimidin-5-yl)-2-methylsulfonyl-3-[[4-[1-methyl-4-(trifluoromethyl)imidazol-2-yl]phenyl]methyl]pyrazolo[4,3-d]pyrimidine], for which the IC50 on USP1-UAF1 was 30 to 100 nM; in test [1] (setting [3]), less than 100 nM; in test [2] (Homo sapiens), no less than 10000 nM; in the test with monoubiquitinated PCNA (Homo sapiens), less than 100 nM.

Values taken from patent publication US20240182481A1 (Tango Therapeutics, Inc., priority 2021, published 2024).
